Results on 21 molecules are retold here after US20210395239A1 (Hoffmann-La Roche Inc., priority 2018, published 2021).

pIC50: −log10 of the molar value.

This experiment addresses T1, hTLR9 (Homo sapiens, UniProt Q9NR96).
T1 sequence (Q9NR96 26-1032): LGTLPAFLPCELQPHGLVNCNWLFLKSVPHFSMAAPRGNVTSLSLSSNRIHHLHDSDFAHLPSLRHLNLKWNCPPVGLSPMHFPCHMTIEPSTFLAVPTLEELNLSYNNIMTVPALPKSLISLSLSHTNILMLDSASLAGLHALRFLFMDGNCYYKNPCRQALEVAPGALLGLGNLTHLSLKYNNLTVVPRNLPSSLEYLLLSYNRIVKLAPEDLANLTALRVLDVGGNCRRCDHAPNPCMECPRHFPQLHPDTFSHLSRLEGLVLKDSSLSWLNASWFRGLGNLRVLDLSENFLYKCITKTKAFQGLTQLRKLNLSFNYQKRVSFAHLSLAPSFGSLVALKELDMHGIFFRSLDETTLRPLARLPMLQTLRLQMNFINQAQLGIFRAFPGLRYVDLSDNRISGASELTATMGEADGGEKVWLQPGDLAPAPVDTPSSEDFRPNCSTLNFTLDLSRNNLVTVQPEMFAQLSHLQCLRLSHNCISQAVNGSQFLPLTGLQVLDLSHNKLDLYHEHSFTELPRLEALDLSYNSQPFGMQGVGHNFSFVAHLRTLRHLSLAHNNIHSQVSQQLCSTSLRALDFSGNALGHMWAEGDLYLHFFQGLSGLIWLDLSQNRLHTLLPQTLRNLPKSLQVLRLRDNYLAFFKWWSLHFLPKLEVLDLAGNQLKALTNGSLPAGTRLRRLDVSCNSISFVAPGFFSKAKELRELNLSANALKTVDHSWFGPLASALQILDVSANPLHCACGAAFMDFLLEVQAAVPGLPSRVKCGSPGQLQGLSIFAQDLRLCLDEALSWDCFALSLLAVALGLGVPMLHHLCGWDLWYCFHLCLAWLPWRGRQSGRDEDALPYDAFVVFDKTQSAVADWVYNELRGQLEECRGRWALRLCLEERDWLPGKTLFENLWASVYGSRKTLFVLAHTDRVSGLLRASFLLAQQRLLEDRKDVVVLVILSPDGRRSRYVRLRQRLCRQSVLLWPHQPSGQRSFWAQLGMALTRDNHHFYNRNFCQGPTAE
As to the kind of experiment: HEK293-Blue-hTLR-9 cells assay (SEAP reporter, ODN2006 stimulation). Format: cell-based. Conditions: HEK293-Blue-hTLR9 cells, ODN2006, 20 hrs; read-out: HEK/hTLR9 IC50. Further details: host or cells: HEK293 (HEK-Blue hTLR9). In a few lines:
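HEK293-Blue-hTLR9 cells with NF-κB/AP-1-driven SEAP reporter treated with serially diluted compound (1% DMSO final) plus ODN2006 for 20 h at 37 °C. Supernatant SEAP measured with QUANTI-Blue, 2 h at 37 °C, absorbance 620–655 nm; antagonism seen as reduced reporter signal.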
For the molecule `Cc1cc(N2CCN(C[C@H]3CN(c4ccc(C#N)c5ncccc45)C[C@@H](C)O3)CC2)nc(N2CCC(N)C(F)(F)C2)n1` (stereo partly drawn) [Example 86, 5-[(2S,6R)-2-[[4-[2-(4-amino-3,3-difluoro-1-piperidyl)-6-methyl-pyrimidin-4-yl]piperazin-1-yl]methyl]-6-methyl-morpholin-4-yl]quinoline-8-carbonitrile], the pIC50 is 6.72.
In the case of `Cc1cc(N2CCN(C[C@H]3CN(c4ccc(C#N)c5ncccc45)C[C@@H](C)O3)CC2)nc(NC2CNCC2F)n1` (stereo in doubt) [Example 73, 5-[(2S,6R)-2-[[4-[2-[[(3S,4R)-4-fluoropyrrolidin-3-yl]amino]-6-methyl-pyrimidin-4-yl]piperazin-1-yl]methyl]-6-methyl-morpholin-4-yl]quinoline-8-carbonitrile], the pIC50 was 7.16.
Turning to `Cc1cc(N2CCN(C[C@H]3CN(c4ccc(C#N)c5ncccc45)C[C@@H](C)O3)CC2)nc(N2CC[C@@H](N)[C@@H](F)C2)n1` [Example 78, 5-[(2S,6R)-2-[[4-[2-[(3S,4R)-4-amino-3-fluoro-1-piperidyl]-6-methyl-pyrimidin-4-yl]piperazin-1-yl]methyl]-6-methyl-morpholin-4-yl]quinoline-8-carbonitrile], the pIC50 is 7.19.
For the molecule `Cc1cc(N2CCN(C[C@H]3CN(c4ccc(C#N)c5ncccc45)C[C@@H](C)O3)CC2)nc(N[C@@H]2CNC[C@@H]2F)n1` [Example 71, 5-[(2S,6R)-2-[[4-[2-[[(3R,4S)-4-fluoropyrrolidin-3-yl]amino]-6-methyl-pyrimidin-4-yl]piperazin-1-yl]methyl]-6-methyl-morpholin-4-yl]quinoline-8-carbonitrile], the pIC50 was 7.18.
With `CO[C@@H]1CN(c2nc(C)cc(N3CCN(C[C@H]4CN(c5ccc(C#N)c6ncccc56)C[C@@H](C)O4)CC3)n2)C[C@@H]1N` [Example 72, 5-[(2S,6R)-2-[[4-[2-[(3S,4R)-3-amino-4-methoxy-pyrrolidin-1-yl]-6-methyl-pyrimidin-4-yl]piperazin-1-yl]methyl]-6-methyl-morpholin-4-yl]quinoline-8-carbonitrile] the figure was 7.34; with `C[C@@H]1CN(c2ccc(C#N)c3ncccc23)C[C@H](CN2CCN(c3ccccc3C3CNCCO3)CC2)O1` (stereo partly drawn) [Example 89, 5-[(2R,6S)-2-methyl-6-[[4-(2-morpholin-2-ylphenyl)piperazin-1-yl]methyl]morpholin-4-yl]quinoline-8-carbonitrile], 7.00; with `Cc1cc(N2CCN(C[C@H]3CN(c4ccc(C#N)c5ncccc45)C[C@@H](C)O3)CC2)nc(N2CC[C@@H](F)[C@@H](N)C2)n1` [Example 83, 5-[(2R,6S)-2-methyl-6-[[4-[6-methyl-2-[(3S,4R)-3-amino-4-fluoro-1-piperidyl]-pyrimidin-4-yl]piperazin-1-yl]methyl]morpholin-4-yl]quinoline-8-carbonitrile], 7.02.
The figure for `Cc1cc(N2CCN(C[C@H]3CN(c4ccc(C#N)c5ncccc45)C[C@@H](C)O3)CC2)nc(N2CC(N)CC(F)(F)C2)n1` (stereo partly drawn) [Example 80, 5-[(2S,6R)-2-[[4-[2-(5-amino-3,3-difluoro-1-piperidyl)-6-methyl-pyrimidin-4-yl]piperazin-1-yl]methyl]-6-methyl-morpholin-4-yl]quinoline-8-carbonitrile] is 6.92; for `CO[C@H]1CN(c2nc(C)cc(N3CCN(C[C@H]4CN(c5ccc(C#N)c6ncccc56)C[C@@H](C)O4)CC3)n2)CCC1N` (stereo in doubt) [Example 90, 5-[(2S,6R)-2-[[4-[2-[(3S,4S)-4-amino-3-methoxy-1-piperidyl]-6-methyl-pyrimidin-4-yl]piperazin-1-yl]methyl]-6-methyl-morpholin-4-yl]quinoline-8-carbonitrile] it is 7.27; for `Cc1cc(N2CCN(C[C@H]3CN(c4ccc(C#N)c5ncccc45)C[C@@H](C)O3)CC2)nc(N2C[C@H](N)C[C@@H](F)C2)n1` (relative stereo) [Example 75, 5-[(2R,6S)-2-methyl-6-[[4-[6-methyl-2-[trans-3-amino-5-fluoro-1-piperidyl]pyrimidin-4-yl]piperazin-1-yl]methyl]morpholin-4-yl]quinoline-8-carbonitrile] it is 7.24.
As for `CO[C@@H]1CN(c2nc(C)cc(N3CCN(C[C@H]4CN(c5ccc(C#N)c6ncccc56)C[C@@H](C)O4)CC3)n2)C[C@H]1N` (single isomer, unassigned) [Example 69B], the pIC50 is 7.15.
Take `Cc1cc(N2CCN(C[C@H]3CN(c4ccc(C#N)c5ncccc45)C[C@@H](C)O3)CC2)nc(N2C[C@H](N)C[C@H](F)C2)n1` (relative stereo) [Example 74, 5-[(2R,6S)-2-methyl-6-[[4-[6-methyl-2-[cis-3-amino-5-fluoro-1-piperidyl]pyrimidin-4-yl]piperazin-1-yl]methyl]morpholin-4-yl]quinoline-8-carbonitrile]: the pIC50 is 7.14.
Take `Cc1cc(N2CCN(C[C@H]3CN(c4ccc(C#N)c5ncccc45)C[C@@H](C)O3)CC2)nc(N2CC[C@@H](F)C(N)C2)n1` (single isomer, unassigned) [Example 84]: the pIC50 is 6.98.
For the molecule `COC1CNCC1Nc1nc(C)cc(N2CCN(C[C@H]3CN(c4ccc(C#N)c5ncccc45)C[C@@H](C)O3)CC2)n1` (stereo in doubt) [Example 70, 5-[(2S,6R)-2-[[4-[2-[[(3R,4R)-4-methoxypyrrolidin-3-yl]amino]-6-methyl-pyrimidin-4-yl]piperazin-1-yl]methyl]-6-methyl-morpholin-4-yl]quinoline-8-carbonitrile], the pIC50 was 7.10.
The figure for `Cc1cc(N2CCN(C[C@H]3CN(c4ccc(C#N)c5ncccc45)C[C@@H](C)O3)CC2)nc(N2C[C@@H](N)C[C@@H](F)C2)n1` [Example 77, 5-[(2S,6R)-2-[[4-[2-[(3S,5R)-3-amino-5-fluoro-1-piperidyl]-6-methyl-pyrimidin-4-yl]piperazin-1-yl]methyl]-6-methyl-morpholin-4-yl]quinoline-8-carbonitrile] is 7.25.
The figure for `Cc1cc(N2CCN(C[C@H]3CN(c4ccc(C#N)c5ncccc45)C[C@@H](C)O3)CC2)nc(N2C[C@@H](N)[C@H](F)C2)n1` [Example 79, 5-[(2S,6R)-2-[[4-[2-[(3R,4R)-3-amino-4-fluoro-pyrrolidin-1-yl]-6-methyl-pyrimidin-4-yl]piperazin-1-yl]methyl]-6-methyl-morpholin-4-yl]quinoline-8-carbonitrile] is 7.20.
With `Cc1cc(N2CCN(C[C@H]3CN(c4ccc(C#N)c5ncccc45)C[C@@H](C)O3)CC2)nc(N2CC[C@@H](N)C(F)C2)n1` (stereo in doubt) [Example 82, 5-[(2S,6R)-2-[[4-[2-[(3R,4R)-4-amino-3-fluoro-1-piperidyl]-6-methyl-pyrimidin-4-yl]piperazin-1-yl]methyl]-6-methyl-morpholin-4-yl]quinoline-8-carbonitrile] the figure was 7.25; with `Cc1cc(N2CCN(C[C@H]3CN(c4ccc(C#N)c5ncccc45)C[C@@H](C)O3)CC2)nc(N[C@@H]2CNC[C@H]2F)n1` [Example 76, 5-[(2S,6R)-2-[[4-[2-[[(3R,4R)-4-fluoropyrrolidin-3-yl]amino]-6-methyl-pyrimidin-4-yl]piperazin-1-yl]methyl]-6-methyl-morpholin-4-yl]quinoline-8-carbonitrile], 7.30.
For `Cc1cc(N2CCN(C[C@H]3CN(c4ccc(C#N)c5ncccc45)C[C@@H](C)O3)CC2)nc(N2CCNC(C(C)(C)O)C2)n1` (stereo partly drawn) [Example 81, 5-[(2S,6R)-2-[[4-[2-[3-(1-hydroxy-1-methyl-ethyl)piperazin-1-yl]-6-methyl-pyrimidin-4-yl]piperazin-1-yl]methyl]-6-methyl-morpholin-4-yl]quinoline-8-carbonitrile], the pIC50 is 7.34.
The figure for `Cc1cc(N2CCN(C[C@H]3CN(c4ccc(C#N)c5ncccc45)C[C@@H](C)O3)CC2)nc(N2CC(N)C2)n1` [Example 87, 5-[(2S,6R)-2-[[4-[2-(3-aminoazetidin-1-yl)-6-methyl-pyrimidin-4-yl]piperazin-1-yl]methyl]-6-methyl-morpholin-4-yl]quinoline-8-carbonitrile] is 7.12; for `CO[C@H]1CN(c2nc(C)cc(N3CCN(C[C@H]4CN(c5ccc(C#N)c6ncccc56)C[C@@H](C)O4)CC3)n2)C[C@@H]1N` (single isomer, unassigned) [Example 69A] it is 7.27.
